# Measurements as given in US11959083B2, “Immunosuppression-reverting oligonucleotides inhibiting the expression of CD39” (Secarna Pharmaceuticals GmbH & Co. KG, priority 2016, dated 2024).
# l = locked nucleic acid (LNA); d = 2'-deoxy (DNA)
# Experiments:
# hCD39 = molecular target: T1, hCD39 (Homo sapiens, UniProt P49961); experiment: ATP degradation in JIYOYE cells after hCD39 knockdown (ATP Bioluminescence Assay); format: cell-based; conditions: 5 μM oligonucleotide 6 days or 20 μM ARL67156 1 h; 2 μM ATP added
# T1 construct: endogenous in cells; host or cells: JIYOYE cells
# T1 sequence (P49961 1-510): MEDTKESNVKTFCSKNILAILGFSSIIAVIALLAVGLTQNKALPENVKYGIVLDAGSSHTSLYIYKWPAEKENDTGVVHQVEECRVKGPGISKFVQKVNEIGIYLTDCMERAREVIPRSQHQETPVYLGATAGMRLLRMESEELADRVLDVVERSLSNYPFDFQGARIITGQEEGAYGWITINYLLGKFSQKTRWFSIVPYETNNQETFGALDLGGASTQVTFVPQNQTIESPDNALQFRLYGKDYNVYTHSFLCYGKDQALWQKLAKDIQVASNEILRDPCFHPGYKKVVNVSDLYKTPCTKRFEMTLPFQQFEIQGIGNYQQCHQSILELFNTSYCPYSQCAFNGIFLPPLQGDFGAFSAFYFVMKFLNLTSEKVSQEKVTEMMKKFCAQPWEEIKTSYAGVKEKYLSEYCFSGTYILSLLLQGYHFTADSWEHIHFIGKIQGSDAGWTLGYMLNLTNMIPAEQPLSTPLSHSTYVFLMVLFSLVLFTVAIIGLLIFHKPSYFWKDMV
# Experimental: FIG. 10A-10C depict effects of hCD39 knockdown on viability and ATP concentration in JIYOYE cells. JIYOYE cells were treated with the indicated antisense oligonucleotide A04040H (SEQ ID No.3) or neg1 for 6 days in total at 5 μM. Medium was replaced with fresh oligonucleotide-containing medium after 3 days and hCD39 protein knockdown efficacy was analyzed on day 6 by flow cytometry. Residual hCD39 expression and viability of oligonucleotide-treated cells is depicted compared to untreated cells (FIG. 10A-10B). After 6 days, 20 μM of the CD39 small molecular inhibitor ARL67156 trisodium salt was added to no ASO treated cells and incubated for 1 h at 37° C. Then, 2 μM of ATP was added to cells or cell culture medium without cells from each condition and ATP concentration of cell supernatants or cell culture medium was determined after 30 min using the ATP Bioluminescence Assay Kit (Roche) (FIG. 10C).
# Adenosine is one major immunosuppressive molecule generated during ATP degradation by hCD39. ATP can be detected by an ATP Bioluminescence Assay (ATP Bioluminescence Assay Kit CLS II; Roche). JIYOYE cells were treated with 5 μM antisense oligonucleotide A04040H (SEQ ID No. 3) or the negative control oligonucleotide neg1 for 6 days (3+3). After 3 days, RPMI-1640 medium was replaced with fresh RPMI-1640 medium containing 5 μM of oligonucleotide. Protein knockdown efficacy (FIG. 10A) and viability (FIG. 10B) were analyzed after 6 days by flow cytometry. […] The same day, cells that were not treated with any antisense oligonucleotide were incubated for 1 hr at 37° C. with 20 μM of the CD39 small molecular inhibitor ARL67156 trisodium salt (TOCRIS). Then, 2 μM of ATP was added to cells or cell culture medium without cells derived from each condition and ATP concentration was measured in the cell supernatants or in cell culture medium after 30 min. […] Table 14 presents the effect of hCD39 knockdown on relative ATP levels in the cell culture supernatants of JIYOYE cells: […]
# human CD8+ T cells = experiment: Proliferation and absolute cell numbers of human CD8+ T cells in presence or absence of extracellular ATP; format: cell-based; conditions: 5 μM oligonucleotide 5 days or 20 μM ARL67156 24 h
# Experimental: FIG. 12A-12C depict human CD8^+ T cells which were labelled with cell proliferation dye, activated with anti-CD3 and treated with 5 μM of the antisense oligonucleotide A04040H (black column) or the control oligonucleotide S6 (white column) for a total treatment time of 5 days. In the vehicle control (striped column), cells were activated with anti-CD3 only. Subsequently, 400 μM of ATP or vehicle were added to cells on day 3 and day 4 after start of oligonucleotide treatment. Furthermore, as additional control, the small molecular CD39-inhibitor ARL67156 trisodium salt was added at 20 μM to cells on day 4, for an incubation time of 24 h (checked column). On day 5 after start of oligonucleotide treatment, (FIG. 12A) CD39 protein expression, (FIG. 12B) proliferation and (FIG. 12C) absolute cell numbers of CD8^+ T cells were analyzed using Flow Cytometry. Depicted is the mean of triplicate wells+/−SD.
# In cancer, ATP is released from tumor cells for example after cell death induced by chemotherapy or radiation therapy. Since the CD39-CD73 axis plays an important role for T cell function the effects of A04040H on T cell proliferation in the presence or absence of extracellular ATP were investigated. Human CD8^+ T cells were labelled with cell proliferation dye, activated with anti-CD3 and treated with 5 μM of the antisense oligonucleotide A04040H or the control oligonucleotide S6 for a total treatment time of 5 days. In the vehicle control, cells were activated with anti-CD3 only. Subsequently, 400 μM of ATP or vehicle were added to cells on day 3 and day 4 after start of oligonucleotide treatment. Furthermore, as additional control, the small molecular CD39-inhibitor ARL67156 trisodium salt was added at 20 μM to cells on day 4 for an incubation time of 24 h. On day 5 after start of oligonucleotide treatment, CD39 protein expression, proliferation, and absolute cell numbers of CD8^+ T cells were analyzed using Flow Cytometry.
# mCD39 mRNA [1] = experiment: mCD39 mRNA knockdown efficacy screen in A20 cells (single dose, gymnotic delivery, QuantiGene Singleplex); format: cell-based, mouse; conditions: 10 μM, three days, normalized to HPRT1
# Experimental: FIG. 14-1 and 14-2 show mCD39 mRNA knockdown efficacy of mCD39 antisense oligonucleotides in the murine cancer cell line A20 (mouse B cell lymphoma). A20 cells were treated with a single dose of 10 μM of the respective antisense oligonucleotide. As negative control, cells were treated with neg1, an antisense oligonucleotide having the sequence CGTTTAGGCTATGTACTT (SEQ ID NO:99). Residual mCD39 mRNA expression relative to untreated cells is depicted. Expression values were normalized to expression of the housekeeping gene HPRT1.
# In order to analyze the efficacy of mCD39 antisense oligonucleotides with regard to the knockdown of mCD39 mRNA expression in a cancer cell line, A20 (mouse B cell lymphoma, ATCC) cells were treated with a single dose (concentration: 10 μM without addition of any transfection reagent; this process is called gymnotic delivery) of the respective antisense oligonucleotide as indicated in FIG. 14. As control, cells were treated with neg1, an antisense oligonucleotide having the sequence CGTTTAGGCTATGTACTT (SEQ ID NO:99). mCD39 and HPRT1 mRNA expression was analyzed after three days using the QuantiGene Singleplex assay (Affymetrix) and mCD39 expression values were normalized to HPRT1 expression values.
# mCD39 mRNA [2] = experiment: In vivo mCD39 mRNA knockdown in spleens of C57BL/6 mice; design: species or system mouse; conditions: day 26, compared to neg 1 treated mice
# Experimental: FIGS. 15A and 15B depict CD39 mRNA expression levels in spleens from C57BL/6 mice treated by subcutaneous injections of either A04011MR or the negative control oligonucleotide neg1 at doses of 25 mg/kg or 10 mg/kg on days 1, 2, 3, 4, 5, 9, 12, 16, and 19 (5 mice/group). Expression values were normalized to expression values of the housekeeping gene HPRT1.
# The potent mCD39 ASO A04011MR was selected and its in vivo knockdown capacity in C57BL/6 mice was analyzed. C57BL/6 mice were treated by subcutaneous injections of either A04011MR or the negative control oligonucleotide neg1 at doses of 25 mg/kg or 10 mg/kg on days 1, 2, 3, 4, 5, 9, 12, 16, and 19 (5 mice/group). Seven days after the last ASO treatment (day 26), mice were sacrificed and spleens were sampled for CD39 mRNA analysis. The results depicted in FIG. 15 show CD39 mRNA expression levels in spleens of A04011MR or neg1-treated mice.
# mCD39 protein = experiment: In vivo mCD39 protein knockdown in tumor-infiltrating immune cells, syngeneic MC38 mouse tumor model; conditions: MC38 tumor-bearing C57BL/6 mice, 20, 10, 5 mg/kg subcutaneous, day 16, compared to the controls
# Experimental: FIGS. 16A and 16B show CD39 protein expression on tumor infiltrating regulatory T cells (Tregs) (FIG. 16A) and tumor associated macrophages (TAMs) (FIG. 16B) from oligonucleotide-treated mice in relation to tumors of untreated mice.
# The potent mCD39 antisense oligonucleotide A04011MR was selected and its in vivo knockdown capacity in a subcutaneous syngeneic murine tumor model was analyzed. Therefore, 5×10^5 MC38 wt tumor cells were injected subcutaneously into C57BL/6 mice. Once tumors reached sizes between 50-70 mm^3, mice were treated systemically by subcutaneous injections with different doses of A04011MR (20 mg/kg; 10 mg/kg; 5 mg/kg) or with the negative control oligonucleotide neg1 (20 mg/kg) on days 1, 2, 3, 4, 5, 9, and 12 (4 mice/per group). As additional control, MC-38 tumor-bearing mice were left untreated. Four days after the last treatment with antisense oligonucleotide (day 16), tumors were isolated in order to analyze CD39 protein expression in subtypes of tumor-infiltrating immune cells using flow cytometry. FIGS. 16A and 16B depict CD39 protein expression on tumor-infiltrating regulatory T cells (Tregs) (FIG. 16A) and tumor associated macrophages (TAMs) (FIG. 16B) from oligonucleotide-treated mice in relation to tumors of untreated mice.
# hCD39 mRNA [3] = experiment: hCD39 mRNA knockdown efficacy screen in A-172 cells (single dose, gymnotic delivery, QuantiGene Singleplex); format: cell-based, human; conditions: 10 μM, 3 days, third screening round
# Method in brief: (§1)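 Antisense oligonucleotides given once at 10 μM without transfection reagent (gymnotic) to HDLM-2 or A-172 cells for 3 days. hCD39 mRNA measured by QuantiGene Singleplex, normalized to HPRT1 and expressed relative to untreated cells; triplicate means.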
# hCD39 mRNA [4] = experiment: hCD39 mRNA knockdown efficacy screen in HDLM-2 cells (single dose, gymnotic delivery, QuantiGene Singleplex); format: cell-based, human; conditions: 10 μM, 3 days, third screening round
# Method in brief: as §1
# hCD39 protein = hCD39 protein expression in primary human CD8+ and CD4+ T cells after oligonucleotide removal (flow cytometry); format: cell-based; conditions: 10 μM for six days with anti-CD3, compared to untreated control cells
# Experimental: Thereafter, oligonucleotides and anti-CD3 were removed and hCD39 protein expression was analyzed by flow cytometry three, six, and eleven days after oligonucleotide removal. CD39 protein expression is depicted as mean fluorescence intensity (MFI) and was calculated by subtracting the MFI of the unspecific isotype control from the MFI of CD39. Depicted is the mean of duplicate wells+/−SD.
# A04040H had shown very potent activity in suppressing hCD39 expression on mRNA- and protein-level in human cancer cell lines. In the next step, its activity in primary human T cells was investigated. Furthermore, the persistence of the effects after antisense oligonucleotide removal was examined. Therefore, CD8^+ and CD4^+ T cells were isolated from peripheral blood and activated for a total treatment time of six days with anti-CD3 in the presence of 10 μM of the hCD39 specific antisense oligonucleotide A04040H (black column) or the control oligonucleotide S6 (white column), which is not complementary to any human mRNA. […] Thereafter, oligonucleotides were removed and hCD39 protein expression was analyzed three, six, and eleven days after oligonucleotide removal by flow cytometry (FIG. 9).
# [5] = absence of extracellular ATP, vs vehicle
# [6] = supplementation with 400 μM of ATP
Compound,absolute cell numbers of CD8+ T cells (human CD8+ T cells; [5]),proliferation of CD8+ T cells (human CD8+ T cells; [5]),absolute numbers of CD8+ T cells (human CD8+ T cells; [6]),proliferation of CD8+ T cells (human CD8+ T cells; [6]),Relative mCD39 mRNA expression (compared to non-treated cells) (mCD39 mRNA [1]),other results
CCN(CC)c1ncnc2c1ncn2[C@@H]1O[C@H](COP(=O)(O)OP(=O)(O)C(Br)(Br)P(=O)(O)O)[C@@H](O)[C@H]1O [ARL67156],no differences,no differences,significantly diminished,reduced proliferation,–,Relative ATP levels in supernatants of JIYOYE cells 30 minutes after addition of ATP (vs. Medium control) (hCD39): 0.38
"+A*+G*+T*A*A*T*C*C*A*C*C*C*A*+T*+A*+G (antisense AGTAATCCACCCATAG; sugars from the 5' end l3 d10 l3, all phosphorothioate, methylation of C not given here) [A04011MR]",–,–,–,–,0.01,mCD39 mRNA levels in spleens (mCD39 mRNA [2]; 10 mg/kg subcutaneous): significantly reduced; mCD39 mRNA levels in spleens (mCD39 mRNA [2]; 25 mg/kg subcutaneous): significantly reduced; mCD39 protein expression on tumor associated macrophages (TAMs) (mCD39 protein): dose-dependently suppressed; mCD39 protein expression on tumor-infiltrating regulatory T cells (Tregs) (mCD39 protein): dose-dependently suppressed
"+T*+C*+T*A*T*C*G*T*G*A*T*G*T*T*+T*+C*+T (antisense TCTATCGTGATGTTTCT; sugars from the 5' end l3 d11 l3, all phosphorothioate, methylation of C not given here) [S6]",no differences,no differences,significantly diminished,reduced proliferation,–,Residual hCD39 mRNA expression relative to untreated cells (set as 1) (hCD39 mRNA [3]): 0.95; Residual hCD39 mRNA expression relative to untreated cells (set as 1) (hCD39 mRNA [4]): 0.95; hCD39 protein expression (MFI) after oligonucleotide removal (hCD39 protein): no inhibitory effect
"+T*+T*+C*G*T*A*G*T*C*T*C*C*A*G*+T*+G*+C (antisense TTCGTAGTCTCCAGTGC; sugars from the 5' end l3 d11 l3, all phosphorothioate, methylation of C not given here) [A04028MR]",–,–,–,–,0.02,–
